{
  "source": "PubChem BioAssay AID330",
  "about": "(DTP/NCI, 2004)",
  "tested_on": "P388 leukemia ip, CD2F1 mice, survival T/C",
  "assay": "NCI In Vivo Anticancer Drug Screen. Data for tumor model P388 Leukemia (intraperitoneal) in CD2F1 (CDF1) mice",
  "settings": "endpoint: median survival time, vehicle: other, higher = longer survival",
  "in_short": "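Mice carrying the transplanted tumor received test compound or vehicle. Survival was recorded in each group, and the value is the treated-group measurement divided by that of the vehicle-treated control group.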",
  "note": "Several values for one entry are separate records, joined by “and”; a condition that tells them apart may be missing. Equal values may be shown once. Inconclusive results and toxic doses are left out.",
  "data": [
    {"molecule": "CC1OC(=O)C(C(C)C)NC(=O)C(C(C)C)OC(=O)C(C(C)C)NC(=O)C(C)OC(=O)C(C(C)C)NC(=O)C(C(C)C)OC(=O)C(C(C)C)NC(=O)C(C)OC(=O)C(C(C)C)NC(=O)C(C(C)C)OC(=O)C(C(C)C)NC1=O", "note": "(configuration not stated)", "values": [
      {"measurement": "T/C", "setting": "dose: 12.5 micrograms/kg/injection, schedule: Q01DX005 (iv)", "value": "99 % of control and 100 % of control"},
      {"measurement": "T/C", "setting": "dose: 12.5 micrograms/kg/injection, schedule: Q03HX008 (ip)", "value": "118 % of control"},
      {"measurement": "T/C", "setting": "dose: 12.5 micrograms/kg/injection, schedule: Q03HX020 (ip)", "value": "119 % of control"},
      {"measurement": "T/C", "setting": "dose: 12.5 micrograms/kg/injection, schedule: Q04DX002 (iv)", "value": "101 % of control"},
      {"measurement": "T/C", "setting": "dose: 12.5 micrograms/kg/injection, schedule: Q12HX004 (ip)", "value": "110 % of control"},
      {"measurement": "T/C", "setting": "dose: 12.5 micrograms/kg/injection, schedule: Q12HX004 (iv)", "value": "103 % of control"},
      {"measurement": "T/C", "setting": "dose: 12.5 micrograms/kg/injection, schedule: Q12HX010 (ip)", "value": "123 % of control"},
      {"measurement": "T/C", "setting": "dose: 12.5 micrograms/kg/injection, schedule: Q12HX010 (iv)", "value": "103 % of control"},
      {"measurement": "T/C", "setting": "dose: 25.0 micrograms/kg/injection, schedule: Q01DX001 (ip)", "value": "98 % of control"},
      {"measurement": "T/C", "setting": "dose: 25.0 micrograms/kg/injection, schedule: Q01DX001 (iv)", "value": "103 % of control"},
      {"measurement": "T/C", "setting": "dose: 25.0 micrograms/kg/injection, schedule: Q01DX005 (ip)", "value": "115 % of control and 116 % of control"},
      {"measurement": "T/C", "setting": "dose: 25.0 micrograms/kg/injection, schedule: Q01DX005 (iv)", "value": "99 % of control and 100 % of control"},
      {"measurement": "T/C", "setting": "dose: 25.0 micrograms/kg/injection, schedule: Q03HX008 (ip)", "value": "113 % of control"},
      {"measurement": "T/C", "setting": "dose: 25.0 micrograms/kg/injection, schedule: Q03HX020 (ip)", "value": "124 % of control"},
      {"measurement": "T/C", "setting": "dose: 25.0 micrograms/kg/injection, schedule: Q04DX002 (ip)", "value": "102 % of control"},
      {"measurement": "T/C", "setting": "dose: 25.0 micrograms/kg/injection, schedule: Q04DX002 (iv)", "value": "101 % of control"},
      {"measurement": "T/C", "setting": "dose: 25.0 micrograms/kg/injection, schedule: Q12HX004 (ip)", "value": "100 % of control"},
      {"measurement": "T/C", "setting": "dose: 25.0 micrograms/kg/injection, schedule: Q12HX004 (iv)", "value": "98 % of control"},
      {"measurement": "T/C", "setting": "dose: 25.0 micrograms/kg/injection, schedule: Q12HX010 (ip)", "value": "121 % of control"},
      {"measurement": "T/C", "setting": "dose: 25.0 micrograms/kg/injection, schedule: Q12HX010 (iv)", "value": "103 % of control"},
      {"measurement": "T/C", "setting": "dose: 50.0 micrograms/kg/injection, schedule: Q01DX001 (ip)", "value": "100 % of control"},
      {"measurement": "T/C", "setting": "dose: 50.0 micrograms/kg/injection, schedule: Q01DX001 (iv)", "value": "101 % of control"},
      {"measurement": "T/C", "setting": "dose: 50.0 micrograms/kg/injection, schedule: Q01DX005 (ip)", "value": "118 % of control and 120 % of control"},
      {"measurement": "T/C", "setting": "dose: 50.0 micrograms/kg/injection, schedule: Q01DX005 (iv)", "value": "98 % of control and 103 % of control"},
      {"measurement": "T/C", "setting": "dose: 50.0 micrograms/kg/injection, schedule: Q04DX002 (ip)", "value": "109 % of control"},
      {"measurement": "T/C", "setting": "dose: 50.0 micrograms/kg/injection, schedule: Q04DX002 (iv)", "value": "100 % of control"},
      {"measurement": "T/C", "setting": "dose: 50.0 micrograms/kg/injection, schedule: Q12HX004 (ip)", "value": "113 % of control"},
      {"measurement": "T/C", "setting": "dose: 50.0 micrograms/kg/injection, schedule: Q12HX004 (iv)", "value": "104 % of control"},
      {"measurement": "T/C", "setting": "dose: 50.0 micrograms/kg/injection, schedule: Q12HX010 (iv)", "value": "101 % of control"},
      {"measurement": "T/C", "setting": "dose: 100.0 micrograms/kg/injection, schedule: Q01DX001 (ip)", "value": "100 % of control"},
      {"measurement": "T/C", "setting": "dose: 100.0 micrograms/kg/injection, schedule: Q01DX001 (iv)", "value": "100 % of control"},
      {"measurement": "T/C", "setting": "dose: 100.0 micrograms/kg/injection, schedule: Q01DX005 (iv)", "value": "101 % of control"},
      {"measurement": "T/C", "setting": "dose: 100.0 micrograms/kg/injection, schedule: Q03HX020 (ip)", "value": "161 % of control"},
      {"measurement": "T/C", "setting": "dose: 100.0 micrograms/kg/injection, schedule: Q04DX002 (ip)", "value": "110 % of control"},
      {"measurement": "T/C", "setting": "dose: 100.0 micrograms/kg/injection, schedule: Q04DX002 (iv)", "value": "101 % of control"},
      {"measurement": "T/C", "setting": "dose: 100.0 micrograms/kg/injection, schedule: Q12HX004 (ip)", "value": "124 % of control"},
      {"measurement": "T/C", "setting": "dose: 100.0 micrograms/kg/injection, schedule: Q12HX010 (iv)", "value": "102 % of control"},
      {"measurement": "T/C", "setting": "dose: 200.0 micrograms/kg/injection, schedule: Q01DX001 (ip)", "value": "103 % of control"},
      {"measurement": "T/C", "setting": "dose: 200.0 micrograms/kg/injection, schedule: Q03HX008 (ip)", "value": "120 % of control"},
      {"measurement": "T/C", "setting": "dose: 200.0 micrograms/kg/injection, schedule: Q12HX010 (ip)", "value": "153 % of control"},
      {"measurement": "T/C", "setting": "dose: 400.0 micrograms/kg/injection, schedule: Q01DX001 (ip)", "value": "111 % of control"},
      {"measurement": "T/C", "setting": "dose: 800.0 micrograms/kg/injection, schedule: Q01DX001 (ip)", "value": "114 % of control"}
    ]}
  ]
}
